The results in this text go back to patent publication US12383534B2, “Methods for treating cancer” (REGENTS OF THE UNIVERSITY OF MINNESOTA, priority 2021, dated 2025).

Some results are limits rather than exact numbers.

One experiment has as its system NCC-CDS-X1 spheres. The experiment can be described thus: Spheroid assay. The conditions noted are these: day 4 and 8. The class given is cell-based, human. The procedure: For spheroid formation assays, 2.5×10^4 NCC-CDS-X1 cells were seeded into 96-well plates (96-well Clear Flat Bottom Ultra-Low Attachment Microplate; Corning, Inc., Corning, NY, USA) in MEM/10% FBS media. Treatment with iP300w was started two days after the plating when the cells formed compact spheres.

The next experiment concerns NCC-CDS-X1 cells. The experiment can be described thus: EdU incorporation (FACS) in NCC-CDS-X1 cells. It counts as cell-based, human. The protocol:
EdU labeling and visualization was done using Click-iT® EdU Flow Cytometry Assay Kit (Thermo Fisher Scientific). Briefly, 1×10^5 NCC-CDS-X1 cells were plated in each well of a 24-well plate. The following day, continual treatment with 0.3 μM iP300w was initiated. For the pulse experiment, cells were treated with iP300w for 4 or 24 hours and analyzed 24 hours later. Cells were cultured with EdU ([…]) in the last 4 hours of the experiment, and samples were prepared for analyses according to the manufacture's instruction. FACS analyses were performed on a BD FACSAria instrument and data was analyzed using FlowJo (BD Biosciences). Experiments were performed on at least three biological replicates.

The nature of experiment [1]: Cell viability (ATP) assay in colorectal cancer cells. The class given is cell-based. Particulars: cancer and colorectal cell lines expected to have a general p300/CBP dependence. The protocol: (§1) Cell lines were plated in a 96 well dish (1×10^5 cells/well), and the following day were treated with iP300w or its stereoisomers. ATP assays were performed using CellTiter-Glo® Luminescent Cell Viability Assay (Promega) according to the manufacturer's instructions. Luminescence was analyzed on POLARstar Optima Microplate Reader (BMG Labtech, Offenburg, Germany).
(§2) Pancreatic and colorectal cancer cell lines were treated with iP300w to further distinguish its specificity to CDS from general cytotoxicity. p300/CBP have been correlated with the invasive and migratory properties of pancreatic and colorectal cancers (Iyer, N. G. et al., Proceedings of the National Academy of Sciences of the United States of America 101, 7386-7391 (2004); and Paladino, D. et al, Oncotarget 7, 7253-7267 (2016)). […] This further supports the specific efficacy of iP300w against cancers bearing p300-dependent oncogenic fusion transcription factors (such as CIC-DUX4), vis-à-vis cancers that may show some degree of growth inhibition by iP300w due simply to p300-dependent proliferative pathways.

Experiment [2] relates to HTC116, MKN28, KATO3 colorectal cancer cells. The experiment is described as above. The class given is cell-based. Particulars: serial dilutions, 48 hours. The procedure:
as §1, §2

The subject of experiment [3] is NCC-CDS-X1 subcutaneous xenograft tumors. The experiment can be described thus: NCC-CDS-X1 xenograft tumor growth in mice. The class given is in vivo, mouse. The conditions noted are these: 1.4 mg/kg b.i.d. intraperitoneally from day 9, 12 days. The protocol:
Mice were maintained, and in vivo experiments were conducted at the University of Minnesota Research Animal Resources facility, under a protocol (1903-36866A) approved by IACUC. Immunodeficient NSG-MDX mice (n=8) were transplanted with 1×10^7 NCC-CDS-X1 cells resuspended in 100 uL of a mixture of medium and Matrigel (Corning). Visible tumor masses at the sites of injection were detected on day 9 after transplantation. All the injected mice developed tumors. At this point, the mice were randomized into two groups, control and iP300w treated, and initial measurement of the tumors was performed. iP300w was initially dissolved in DMSO at 10 mM and then diluted in 100 uL PBS. Each mouse received 1.4 mg/kg iP300w intraperitoneally twice daily or vehicle in the control group. Tumor size was recorded every 4 days and the volume was calculated using the formula (length×width^2)/2.
Finally, the effectiveness of iP300w to suppress CDS tumor growth in vivo was assessed. NCC-CDS-X1 cells were used to generate subcutaneous xenograft tumors in immunodeficient NSG mice (n=8). When tumors were palpable (day 9) iP300w injections (1.4 mg/kg b.i.d.) were initiated and the progression of tumor growth was monitored.

Experiment [4] concerns global H3K18 and H3K27 acetylation. The experiment can be described thus: Western blot for H3 acetylation markers in NCC-CDS-X1 cells. The class given is cell-based, human. The conditions noted are these: NCC-CDS-X1, 18 hours. The procedure:
For western blot analyses, cells were lysed with RIPA buffer supplemented with protease inhibitor cocktail (Complete, Roche), and proteins were separated on 10% SDS-PAGE gels, then transferred to PVDF membranes. Antibodies were diluted in 5% skim milk in TBST and incubated overnight at 4° C. or 1 hour at RT. An appropriate secondary HRP conjugated antibody was incubated for 1 hour at RT. Membranes were then washed with TBST, and signal was visualized using Pierce ECL western blotting substrate (Thermo Scientific). For immunofluorescence, cells cultured in 96 well plates were fixed in 4% PFA for 10 min., washed twice with PBS, permeabilized with 0.3% Triton X for 30 min, and blocked with 3% BSA for 1 hour at R/T. Primary antibodies were diluted in 3% BSA and incubated o/n at 4° C. An appropriate conjugated secondary antibody was applied for 60 min at RT. Nuclei were visualized using DAPI (1:5000, Sigma). […]

As to `CNC(=O)Cn1cc(-c2ccc3c(c2)[C@H](F)C[C@]32NC(=O)N(CC(=O)N(Cc3ccc(F)cc3)[C@@H](C)C(F)(F)F)C2=O)cn1` (single isomer, unassigned) [iP300w], the “effect on CDS cell sphere formation and growth” value with NCC-CDS-X1 spheres was “dose and time inhibitory effect”. The “proliferation rate after 4-hour pulse” value with NCC-CDS-X1 cells (0.3 μM 4-hour pulse, measured 20 hours later) is reported as “significantly reduced proliferation rate”. The “cell cycle recovery after 24-hour pulse” value in the experiment with NCC-CDS-X1 cells (0.3 μM treated for 24 hours, 48 hours after the pulse) is given as “not able to restore the cell cycle”. Besides, the “EdU labeling of proliferating cells” value in the experiment on NCC-CDS-X1 cells (continual treatment 0.3 μM, 48 hours) was “virtually no cells were labelled”. Moreover, the “concentration at which growth inhibition is first observed” value in experiment [1] was not below 0.3 µM. Moreover, in experiment [2], the “effect on cell viability” value is “no significant effect on cell viability”. Also, in experiment [3], the “treated mice with tumor growth halted” value is 5/8 and the “treated mice with tumor growth significantly diminished” value is on record as 3/8. The “effect on global H3K18 and H3K27 acetylation” value in experiment [4] was “reduces global H3K18 and H3K27 acetylation”.
